Assay results reported in ChEMBL document CHEMBL1201862, “PubChem BioAssay data set” (2004).
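These data come from cells grown in 96-well plates and exposed to compound for 48 hours at five concentrations. At the GI50, growth is halved.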 The source made the active and inactive calls. No stated cut-off is given here; in the data, active = GI50 up to about 1.1 µM and inactive = higher.

Legend:
Assay in all cases: NCI anticancer screen, dose series, 48 h
[1] = system: HCT-116
[2] = system: SF-539
[3] = system: U-251
[4] = system: TK-10
[5] = system: MCF7
[6] = system: MDA-MB-435
[7] = system: HCT-15
[8] = system: UACC-62
[9] = system: SNB-19
[10] = system: NCI-H460
[11] = system: SN12C
[12] = system: SF-295
[13] = system: SW-620
[14] = system: PC-3
[15] = system: CCRF-CEM
[16] = system: Malme-3M
[17] = system: HOP-92
[18] = system: A498
[19] = system: KM12
[20] = system: MOLT-4
[21] = system: MDA-N
[22] = system: SK-MEL-5
[23] = system: ACHN
[24] = system: BT-549
[25] = system: LOX IMVI
[26] = system: OVCAR-8
[27] = system: IGROV-1
[28] = system: HOP-62
[29] = system: SNB-75
[30] = system: UO-31
[31] = system: T47D
[32] = system: RXF 393
[33] = system: UACC-257
[34] = system: OVCAR-3
[35] = system: Hs-578T
[36] = system: M14
[37] = system: SK-OV-3
[38] = system: DU-145
[39] = system: OVCAR-5
[40] = system: 786-0
[41] = system: K562
[42] = system: EKVX
[43] = system: NCI-H23
[44] = system: HT-29
[45] = system: NCI-H226
[46] = system: SK-MEL-28
[47] = system: SF-268
[48] = system: A549
[49] = system: RPMI-8226
[50] = system: NCI/ADR-RES
[51] = system: HCC 2998
[52] = system: SR
[53] = system: NCI-H522
[54] = system: SK-MEL-2
[55] = system: COLO 205
[56] = system: OVCAR-4
[57] = system: CAKI-1
[58] = system: HL-60

CCCCCCOc1ccc(NC2=C(Cl)C(=O)c3ncccc3C2=O)cc1
GI50 [1]: 1.16 µM (inactive) | GI50 [2]: 1.72 µM (inactive) | GI50 [3]: 1.61 µM (inactive) | GI50 [4]: 4.31 µM (inactive) | GI50 [5]: 1.11 µM (active) | GI50 [6]: 1.7 µM (inactive) | GI50 [7]: 2.02 µM | GI50 [8]: 1.44 µM (inactive) | GI50 [9]: 1.97 µM (inactive) | GI50 [10]: 1.55 µM (inactive) | GI50 [11]: 1.67 µM (inactive) | GI50 [12]: 1.96 µM (inactive) | GI50 [13]: 1.83 µM (inactive) | GI50 [14]: 1.51 µM (inactive) | GI50 [15]: 1.21 µM (inactive) | GI50 [16]: 1.91 µM (inactive) | GI50 [17]: > 10 µM (inactive) | GI50 [18]: > 10 µM (inactive) | GI50 [19]: 1.33 µM (inactive) | GI50 [20]: 2.24 µM (inactive) | GI50 [21]: 1.52 µM (inactive) | GI50 [22]: 1.54 µM (inactive) | GI50 [23]: > 10 µM (inactive) | GI50 [24]: 1.76 µM (inactive) | GI50 [25]: 1.61 µM (inactive) | GI50 [26]: 3.43 µM (inactive) | GI50 [27]: 2.77 µM (inactive) | GI50 [28]: 1.92 µM (inactive) | GI50 [29]: 1.99 µM (inactive) | GI50 [30]: 1.39 µM (inactive) | GI50 [31]: 1.68 µM (inactive) | GI50 [32]: 1.84 µM (inactive) | GI50 [33]: 1.9 µM (inactive) | GI50 [34]: 2.1 µM (inactive) | GI50 [35]: 1.79 µM (inactive) | GI50 [36]: 1.88 µM (inactive) | GI50 [37]: > 10 µM (inactive) | GI50 [38]: 1.5 µM (inactive) | GI50 [39]: 7.35 µM (inactive) | GI50 [40]: 2.22 µM (inactive) | GI50 [41]: 2.59 µM (inactive) | GI50 [42]: > 10 µM (inactive) | GI50 [43]: 1.97 µM (inactive) | GI50 [44]: 3.87 µM (inactive) | GI50 [45]: 5.61 µM (inactive) | GI50 [46]: 1.64 µM (inactive) | GI50 [47]: 1.97 µM (inactive) | GI50 [48]: 2.49 µM (inactive)

C(=N\c1ccc(-c2nc3ccccc3s2)cc1)/c1cccs1
GI50 [1]: 52.1 µM (inactive) | GI50 [2]: 59.3 µM (inactive) | GI50 [3]: 49.2 µM (inactive) | GI50 [4]: 30.5 µM (inactive) | GI50 [49]: 33.4 µM (inactive) | GI50 [50]: 43.3 µM (inactive) | GI50 [6]: 41.9 µM (inactive) | GI50 [7]: 40.6 µM | GI50 [8]: 42 µM (inactive) | GI50 [9]: 88.3 µM (inactive) | GI50 [10]: 36.1 µM (inactive) | GI50 [11]: 40.6 µM (inactive) | GI50 [12]: 23.2 µM (inactive) | GI50 [13]: 75.3 µM (inactive) | GI50 [51]: 34 µM (inactive) | GI50 [52]: 39.6 µM (inactive) | GI50 [53]: 32.1 µM (inactive) | GI50 [14]: 38.1 µM (inactive) | GI50 [15]: 0.617 µM (active) | GI50 [16]: 68.5 µM (inactive) | GI50 [17]: 28.4 µM (inactive) | GI50 [18]: 25.1 µM (inactive) | GI50 [19]: 40.1 µM (inactive) | GI50 [20]: 27 µM (inactive) | GI50 [21]: 39.4 µM (inactive) | GI50 [22]: 30.4 µM (inactive) | GI50 [23]: 35.8 µM (inactive) | GI50 [54]: 38.2 µM (inactive) | GI50 [24]: 56.2 µM (inactive) | GI50 [25]: 46.1 µM (inactive) | GI50 [26]: 49.2 µM (inactive) | GI50 [55]: 42.1 µM (inactive) | GI50 [27]: 49.8 µM (inactive) | GI50 [28]: 30.3 µM (inactive) | GI50 [29]: 29.9 µM (inactive) | GI50 [30]: 43.9 µM (inactive) | GI50 [31]: 22.8 µM (inactive) | GI50 [56]: 39.9 µM (inactive) | GI50 [57]: 38.5 µM (inactive) | GI50 [32]: 27.5 µM (inactive) | GI50 [33]: 38.2 µM (inactive) | GI50 [34]: 42.5 µM (inactive) | GI50 [35]: 41.7 µM (inactive) | GI50 [36]: 69 µM (inactive) | GI50 [37]: 81.8 µM (inactive) | GI50 [38]: 69.8 µM (inactive) | GI50 [39]: 89.1 µM (inactive) | GI50 [40]: 48.2 µM (inactive) | GI50 [41]: 34.8 µM (inactive) | GI50 [42]: 45.2 µM (inactive) | GI50 [43]: 54.3 µM (inactive) | GI50 [44]: 52.4 µM (inactive) | GI50 [45]: 54.2 µM (inactive) | GI50 [46]: > 100 µM (inactive) | GI50 [47]: 34.8 µM (inactive) | GI50 [48]: 57.7 µM (inactive) | GI50 [58]: < 0.01 µM (active)
